Assay results from US20190054047A1, “TREATMENT OF MALIGNANT ADRENOCORTICAL TUMOR WITH NICLOSAMIDE AND OTHER COMPOUNDS” (The U.S.A., as represented by the Secretary, Department of …, priority 2016, published 2019).

Columns and labels:
[1] = system: NCI-H295R cells; assay: Proliferation with niclosamide, mitotane or the combination (CyQuant, Chou-Talalay); type: cell-based; details: niclosamide 0.05-0.2 μM or mitotane 0.5-2 μM alone
Description: This example describes a method used to evaluate proliferation of H2965R adrenocortical carcinoma cells in the presence of (1) niclosamide alone (at 0.05 μM, 0.075 μM, 0.1 μM, 0.15 μM, or 0.2 μM), (2) mitotane alone (at 0.5 μM, 0.75 μM, 1 μM, 1.5 μM, or 2 μM), or (3) a combination of both niclosamide and mitotane.
NCI-H295R cells were cultured in Dulbecco modified Eagle medium (DMEM) supplemented with 2.5% NuSerum (BD Biosciences, San Jose, Calif.) and 0.1% ITS premix (BD Biosciences, San Jose, Calif.). Cells were maintained in 5% CO2 atmosphere at 37° C. 3×10^3 cells were plated in 96-well plates. […] Cell count was determined using the CyQuant kit (Life technologies, Grand Island, N.Y.) according to the manufacturer's instructions, and absorbance (cell number) was measured using a SpectraMax M5 microplate reader (Molecular Devices, Sunnyvale, Calif., ex485/em538). Assays were performed in quadruplicate and the experiments were repeated three times.
Statistical analysis was performed using GraphPad Prism 6 software (GraphPad Software, La Jolla, Calif.). Data was analyzed using a two-tailed Mann-Whitney test. Statistical significance was defined as a p-value of less than 0.05. Data are presented as mean±standard deviation (SD). […] Defined as a CI index of <1=synergistic, 1=additive, and >1 antagonistic.

[2] = humans; read-out: known Cmax in humans; cited from earlier work
[3] = system: BD140A cells; assay: Caspase 3/7 activity assay (Caspase-Glo 3/7); type: cell-based
Description: (§1) Cells were plated in 96-well plates and treated with niclosamide or the vehicle. Caspase 3/7 activity was measured using the Caspase-Glo 3/7 assay (Promega, Madison, Wis.), according to manufacturer's instructions.

[4] = system: NCI-H295R; assay: Caspase 3/7 activity assay (Caspase-Glo 3/7); type: cell-based; details: 48 hours
Description: as §1

[5] = system: SW-13; assay: Caspase 3/7 activity assay (Caspase-Glo 3/7); type: cell-based; details: SW-13, 96 hours
Description: as §1

[6] = system: BD140A cells; assay: Wound-healing migration assay; type: cell-based; details: wound-heal assay, after 6 hours and 12 hours, vs vehicle control
Description: (§2) NCI-H295R and SW-13 cells were plated in six-well plates and treated with varying concentrations of niclosamide or the vehicle for 24 hours. Cells were trypsinized and plated in transwell chambers (BD Biosciences, San Jose, Calif.) at a density of 1×10^5 cells per 0.5 mL. The lower chamber was filled with DMEM supplemented with 10% FBS as a chemoattractant. Cells were allowed to migrate for 24 hours or 48 hours depending on the cell line, and were fixed and stained with Diff-Quik (Dade Behring, Newark, N.J.). Cells were imaged and counted in three random fields per well, and the experiments performed in triplicate. […] The cells were scratched using a sterile pipette tip and photographed at various time points.

[7] = system: three ACC cell lines (BD140A, SW-13, NCI-H295R); assay: Cellular proliferation assay (CyQuant), monolayer culture; type: cell-based
Description: 3×10^3 and 6×10^3 cells were plated in 96-well plates depending on the cell line. 100 μL of fresh culture medium containing the drug or vehicle was added. Cell count was determined using the CyQuant kit (Life Technologies, Grand Island, N.Y.), according to the manufacturer's instructions, and cell number was measured using a SpectraMax M5 microplate reader (ex485/em538; Molecular Devices, Sunnyvale, Calif.). Assays were performed in quadruplicate and the experiments were repeated three times.

[8] = in vivo; cited from earlier work
[9] = system: vimentin; assay: Western blot analysis of EMT mediators; type: cell-based; details: 48 hours of treatment
Description: (§3) The following antibodies were used: anti-beta catenin (1:1,000) from R&D Systems (Minneapolis, Minn.); anti-GAPDH (1:3,000) from Santa Cruz Biotechnology (Dallas, Tex.); anti-N-cadherin (1:4,000) from EMD Millipore (Billerica, Mass.); and anti-vimentin (1:5,000) from Cell Signaling Technology (Boston, Mass.). Niclosamide (2′,5-dichloro-4′-nitrosalicylanilide) was purchased from Sigma-Aldrich (St. Louis, Mo.) and dissolved in DMSO for in vitro studies.
(§4) Cell lysates were analyzed by SDS-PAGE and transferred to a PVDF membrane. The membranes were incubated with the appropriate primary antibodies overnight at 4° C., followed by horseradish peroxidase conjugated IgG (anti-rabbit 1:3,000, Cell Signaling Technology; anti-mouse 1:3,000, Santa Cruz Biotechnology; anti-goat 1:2,000, R&D Systems, Inc.). Proteins were detected by enhanced chemiluminescence (ECL; Thermoscientific, Rockford, Ill.).

[10] = system: N-cadherin; assay: Western blot analysis of EMT mediators; type: cell-based; details: 48 hours of treatment
Description: as §3, §4

[11] = system: NCI-H295R xenografts; assay: ACC xenograft tumor growth in vivo; parameters: species or system Nu+/Nu+ mice; details: for inhibition in tumor growth: four weeks, vs vehicle control
Description: Mice were maintained according to National Institutes of Health (NIH) Animal Research Advisory Committee (ARAC) guidelines. 5×10^6 NCI-H295R cells were injected into the flank of Nu^+/Nu^+mice. Tumors were allowed to grow and mice were randomized into three treatment groups (8 mice per treatment group). M ice were treated with 100 mg/kg of niclosamide, 200 mg/kg of niclosamide, or the vehicle (PEG500) everyday by oral gavage. Tumor sizes were measured in two dimensions every week with calipers and recorded.

[12] = system: adrenocortical carcinoma cell lines NCIH295R, BD140A and SW-13; assay: qHTS of 4,292 compounds, activity in all three ACC cell lines; type: cell-based; details: lower IC50 and higher efficacy vs cisplatin, doxorubicin, etoposide, mitotane, streptozocin (FIG. 1)
Description: (§5) NCI-H295R and SW-13 cells were cultured in Dulbecco's modified Eagle medium (DMEM) supplemented with 2.5% NuSerum (BD Biosciences, San Jose, Calif.) and 0.1% ITS premix (BD Biosciences, San Jose, Calif.). BD140A cells, provided by Drs. Kimberly Bussey and Michael Demeure (Phoenix, Ariz.), were cultured in RPMI supplemented with 1% […] (Gibco, Grand Island, N.Y.), 1% penicillin-streptomycin (Gibco, Grand Island, N.Y.), and 10% fetal bovine serum (FBS; Invitrogen, Carlsbad, Calif.). The cell lines were authenticated using short tandem repeat profiling. Cells were maintained in a 5% CO2 atmosphere at 37° C.
The National Institutes of Health Chemical Genomic Center pharmaceutical library consists of 4,292 small molecules and compounds. Compounds were prepared as described previously (Mehta et al., Clin Cancer Res. 21:4123-32, 2015; hereby incorporated by reference in its entirety). The cell viability of treated cells was measured using the luciferase-coupled ATP quantitation assay, Cell Titer-Glo (Promega, Madison, Wis.). Doxorubicin hydrochloride and tetraoctylammonium bromide were used as positive controls. The final concentration of compounds in the assay ranged from 0.6 nM to 46 μM. […]

[13] = system: AKT pathway; assay: AKT pathway inhibition (FIGS. 6A and 6B); type: cell-based; details: BD140A and H295R cells
[14] = system: all three ACC cell lines; assay: Cell cycle analysis (propidium iodide flow cytometry); type: cell-based; details: 48 hours, more cells in G1, fewer in S phase
Description: Cells plated in six-well plates were treated with niclosamide or the vehicle. At 48 hours, cells were fixed for 30 minutes in 70% ethanol at 4° C., and stained with 50 μg/mL of propidium iodide containing […] of ribonuclease A. Flow cytometry was performed on a Canto I flow cytometer (Becton-Dickinson, Franklin Lakes, N.J.) using CellQuest software (BD Biosciences, San Jose, Calif.). Data was generated for at least 20,000 events per sample and analyzed using Modfit software (Verity Software House, Inc., Topsham, Me.).

[15] = system: NCI-H295R MCAs; assay: Three-dimensional multicellular aggregates (MCA); type: cell-based; details: after four weeks of treatment
Description: (§6) NCI-H295R and SW-13 cells, which form multicellular aggregates (MCA) or spheroids, were plated in Ultra Low Cluster 24-well plates (Costar, Corning, N.Y.) at 1×10^5 cells/0.5 mL or 6×10^4 cells/0.5 mL depending on the cell line. Spheroids were allowed to develop for one or two weeks at 37° C. in 5% CO2, and media was exchanged twice a week. Spheroids were treated with niclosamide or the vehicle at varying concentrations, and imaged weekly.

[16] = system: SW-13 MCAs; assay: Three-dimensional multicellular aggregates (MCA); type: cell-based; details: SW-13, after three weeks of treatment
Description: as §6

[17] = system: NCI-H295R and SW-13; assay: Transwell (Boyden chamber) migration assay; type: cell-based; details: transwell migration assays
Description: as §2

[18] = system: all three cell lines (ACC); assay: Seahorse XF96 mitochondrial metabolism assay (OCR, ECAR); type: cell-based
Description: The Seahorse XF96 assay was performed according to the manufacturer's instructions (Seahorse Bioscience, Billerica, Mass.). Briefly, cells were plated in XF96 plates and media was replaced with unbuffered DMEM supplemented with 2 mmol of glutamine and 2.5 g/L of D-Glucose. After 1 hour in a 37° C. CO2-free incubator, the oxygen consumption rate (OCR) and extracellular acidification rate (ECAR) were measured before and after injection of the drug, the vehicle, or carbonyl cyanide 4-(trifluoromethoxy) phenylhydrazone (FCCP) using the Seahorse XF96 extracellular flux analyzer.

[19] = system: β-catenin; assay: Western blot analysis of β-catenin; type: cell-based; details: all three cell lines
Description: as §3, §4

[20] = cited from earlier work
[21] = system: ACC cells; assay: TMRE staining, mitochondrial membrane potential; type: cell-based; details: after 3 hours and 6 hours of treatment
Description: Cells in 96-well plates were treated with the drug or vehicle. Cells were then stained with 200 nM of tetramethylrhodamine, ethyl ester (TMRE) for 20 minutes at 37° C. and were washed with PBS; fluorescence was measured using a SpectraMax M5e 96-well fluorescence microplate reader. FCCP was used as a positive control.

[22] = system: BD140A; assay: qHTS cell viability (Cell Titer-Glo ATP quantitation); type: cell-based
Description: as §5
(§7) The National Institutes of Health Chemical Genomic Center pharmaceutical library consists of 4,292 small molecules and compounds. Compounds were prepared as described previously (Mehta et al., Clin Cancer Res. 21:4123-32, 2015; hereby incorporated by reference in its entirety). The cell viability of treated cells was measured using the luciferase-coupled ATP quantitation assay, Cell Titer-Glo (Promega, Madison, Wis.). Doxorubicin hydrochloride and tetraoctylammonium bromide were used as positive controls. The final concentration of compounds in the assay ranged from 0.6 nM to 46 μM. The titration-response data was plotted and modeled by a four-parameter logistic fit-to-yield half-maximal inhibitory concentration (IC50) and efficacy (maximal response), as compared to tetraoctylammonium bromide values.

[23] = system: NCI-H295R; assay: as above; type: cell-based; details: Homo sapiens
Description: as §5, §7

[24] = system: SW-13; assay: as above; type: cell-based; details: Homo sapiens, SW13; SW-13, qHTS
Description: as §5, §7

SMILES: Clc1ccc(C(c2ccccc2Cl)C(Cl)Cl)cc1 (stereo not shown) [mitotane]
- reducing proliferation of H295R cells, single agent [1]: some effect

SMILES: O=C(Nc1ccc([N+](=O)[O-])cc1Cl)c1cc(Cl)ccc1O [niclosamide, 5-chloro-N-(2-chloro-4-nitrophenyl)-2-hydrobenzamide]
- Cmax [2]: 18.3 µM
- caspase 3/7 activity [3]: no increase
- caspase 3/7 activity [4]: increased
- caspase 3/7 activity [5]: increased
- cell migration [6]: decreased
- cytotoxicity (killing pre-existing cancer cells) ([7]; at higher concentrations): cytotoxic
- cellular proliferation ([7]; monolayer cell culture, three ACC cell lines): inhibited proliferation in a time- and dose-dependent manner
- oral bioavailability [8]: low
- expression of vimentin [9]: reduced
- expression of N-cadherin [10]: reduced
- reducing proliferation of H295R cells, single agent [1]: some effect
- tumor growth inhibition ([11]; 100 mg/kg and 200 mg/kg groups, 8 weeks, vs control group): more than 90%
- tolerability / toxicity in mice ([11]; 100 mg/kg and 200 mg/kg oral): no observed toxicity or side effects
- inhibition in tumor growth ([11]; 100 mg/kg everyday by oral gavage): 60%
- inhibition in tumor growth ([11]; 200 mg/kg everyday by oral gavage): 80%
- mouse body weight ([11]; treated groups vs vehicle): no significant weight differences
- activity compared to commonly used drugs for ACC [12]: better activity
- AKT pathway [13]: inhibited
- cell cycle progression [14]: induced G1 cell cycle arrest
- effect on MCAs [15]: growth inhibition and disintegration of the MCAs
- effect on MCAs [16]: growth inhibition and disintegration of the MCAs
- cellular migration [17]: Reduced
- extracellular acidification rate (ECAR) [18]: increased
- oxygen consumption rate (OCR) [18]: increased
- expression of β-catenin [19]: reduced
- water solubility [20]: low
- mitochondrial membrane potential (TMRE) [21]: decrease
- IC50 [22]: 120 nM
- IC50 [23]: 530 nM
- IC50 [24]: 150 nM
